As usually defined, the IC50 is the concentration at which inhibition is half-maximal. As a reminder, the inhibition is the drop in the measured response relative to a control, in per cent.

The values that follow come from US20240083861A1, “HSD17B13 INHIBITORS AND USES THEREOF” (FL2022-001, Inc., priority 2020, published 2024).

A value given as a limit tells only on which side of the number the result lay.

The target of one assay is T1, Recombinant human HSD17B13 enzyme (Homo sapiens, UniProt Q7Z5P4).
T1 sequence (Q7Z5P4 20-300): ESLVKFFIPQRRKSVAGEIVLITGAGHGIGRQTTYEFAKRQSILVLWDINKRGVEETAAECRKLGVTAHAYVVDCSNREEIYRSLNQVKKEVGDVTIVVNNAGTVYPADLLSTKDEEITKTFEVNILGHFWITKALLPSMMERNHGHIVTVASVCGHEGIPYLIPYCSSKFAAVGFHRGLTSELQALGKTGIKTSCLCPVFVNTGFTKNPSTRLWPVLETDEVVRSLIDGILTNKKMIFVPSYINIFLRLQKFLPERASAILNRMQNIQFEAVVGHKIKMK
Put plainly: HSD17b13 NAD(P)H-Glo biochemical assay. The following applies: 50 uM estradiol, 1 mM NAD+, NAD(P)H-Glo luminescence; read-out: HSD17β13 IC50. The essentials:
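Recombinant human HSD17B13 in 20 mM Tris pH7.4 with 0.002% Tween-20 and 0.02% BSA was preincubated with inhibitor for 20 minutes at RT. The reaction ran 3 hours at 37° C with 50 uM estradiol and 1 mM NAD+ (final). NADH formed was detected by NAD(P)H-Glo luminescence after 1 hour at RT.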
Take `Cn1nc(-c2cc(C(F)(F)F)c(F)c(O)c2F)c2cnc(N3CCOC(c4cccnc4)C3)nc21` (stereo not shown) [Compound 18.55, 2,6-Difluoro-3-(1-methyl-6-(2-(pyridin-3-y1)morpholino)-1H-pyrazolo[3,4-d]pyrimidin-3-y1)-5-(trifluoromethyl)phenol]: the IC50 is < 100 nM.

In the case of `Cn1nc(-c2cc(C(F)(F)F)c(F)c(O)c2F)c2cnc(N3CCCC(c4cncnc4)C3)nc21` (stereo not shown) [Compound 18.90, 2,6-Difluoro-3-(1-methyl-6-(3-(pyrimidin-5-y1)piperidin-1-yl)-1H-pyrazolo[3,4-d]pyrimidin-3-y1)-5-(trifluoromethyl)phenol], the IC50 was < 100 nM.

On to `CC(=O)N1CCN(c2cc3c(cn2)c(-c2cc(C(F)(F)F)c(F)c(O)c2F)nn3C)CC1` [Compound 9.62, 1-(4-(3-(2,4-Difluoro-3-hydroxy-5-(trifluoromethyl)phenyl)-1-methyl-1H-pyrazolo[4,3-c]pyridin-6-yl)piperazin-1-yl)ethanone], for which the IC50 fell in the range of 100 to 1000 nM.

As to `CS(=O)(=O)N1CCN(c2ccc3oc(-c4cc(C(F)(F)F)cc(O)n4)nc3c2)CC1` [Compound 7.01, 6-(5-(4-(Methylsulfonyl)piperazin-1-yl)benzo[d]oxazol-2-yl)-4-(trifluoromethyl)pyridin-2-ol], the IC50 was 1000 to 30000 nM.

With `Cn1nc(-c2cc(C(F)(F)F)c(F)c(O)c2F)c2cnc(N(CC3CC3)C3CCC3)cc21` [Compound 9.51, 3-(6-(Cyclobutyl(cyclopropylmethyl)amino)-1-methyl-1H-pyrazolo[4,3-c]pyridin-3-yl)-2,6-difluoro-5-(trifluoromethyl)phenol], the 50% inhibitory concentration (IC50) is < 100 nM.

`Cn1nc(-c2cc(C(F)(F)F)c(F)c(O)c2F)c2cnc(N3CCN(c4ccccc4)C(=O)C3)cc21` [Compound 9.91, 4-(3-(2,4-Difluoro-3-hydroxy-5-(trifluoromethyl)phenyl)-1-methyl-1H-pyrazolo[4,3-c]pyridin-6-yl)-1-phenylpiperazin-2-one]: the IC50 was < 100 nM.

The same assay, now with this note: at 30 uM compound; read-out: HSD17β13 % inhibition at 30 uM.
Take `O=C(NC12CC(C1)C2)c1ccc2oc(-c3c(F)cc(F)c(O)c3F)nc2c1` [Compound 23.01, N-(Bicyclo[1.1.1]pentan-1-y1)-2-(2,4,6-trifluoro-3-hydroxyphenyl)benzo[d]oxazole-5-carboxamide]: the inhibition at 30 µM was < 20%.
